Test results from ChEMBL document CHEMBL1201862, “PubChem BioAssay data set” (2004).
The source made the active and inactive calls.

Assays:
[1] = blockers of CAL PDZ–TMR peptide complex – biochemical, fluorescence polarization, untagged CAL PDZ, cherry-pick, set 2, dose response (AID 602254); assay type: functional
[2] = molecular target: T1, Neuropeptides B/W receptor type 1 (Homo sapiens, UniProt P48145); assay: human NPBW1 receptor blockade, IC50 – cell-based, fluorescence, dose response, set 5, late-stage follow-up (AID 588566); assay type: functional
T1 sequence (P48145 whole entry): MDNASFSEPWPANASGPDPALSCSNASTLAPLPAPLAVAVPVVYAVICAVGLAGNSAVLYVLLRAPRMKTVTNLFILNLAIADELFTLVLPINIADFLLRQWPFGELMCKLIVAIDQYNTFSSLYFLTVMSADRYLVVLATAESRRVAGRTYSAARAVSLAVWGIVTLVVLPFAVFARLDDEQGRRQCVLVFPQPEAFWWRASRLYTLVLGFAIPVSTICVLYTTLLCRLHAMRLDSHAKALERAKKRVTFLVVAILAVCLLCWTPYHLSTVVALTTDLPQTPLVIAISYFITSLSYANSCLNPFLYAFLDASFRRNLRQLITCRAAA

[3] = molecular target: Melanin-concentrating hormone receptor 1 (Homo sapiens, UniProt Q99705); assay: Late-stage fluorescence-based counterscreen for antagonists of the G-protein coupled receptor 7 (GPR7): cell-based dose response assay to identify antagonists of the melanin-concentrating hormone receptor 1 (MCHR1) Set 5.; assay type: functional
Sequence of Melanin-concentrating hormone receptor 1 (Q99705 whole entry): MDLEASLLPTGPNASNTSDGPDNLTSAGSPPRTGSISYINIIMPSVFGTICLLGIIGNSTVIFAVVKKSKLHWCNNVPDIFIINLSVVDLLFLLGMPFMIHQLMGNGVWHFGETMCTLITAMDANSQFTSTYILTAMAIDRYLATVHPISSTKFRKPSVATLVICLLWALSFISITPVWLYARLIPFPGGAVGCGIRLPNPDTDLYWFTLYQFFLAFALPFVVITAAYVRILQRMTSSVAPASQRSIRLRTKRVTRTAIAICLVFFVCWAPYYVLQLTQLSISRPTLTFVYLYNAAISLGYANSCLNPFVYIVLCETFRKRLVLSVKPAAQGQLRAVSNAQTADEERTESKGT

[4] = Trypanosoma cruzi growth suppression in host cells – NIH3T3 host cells, beta-gal luminescence, confirmation (AID 2044); assay type: functional, cell-based;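 note: intracellular parasites grown in NIH/3T3 mouse fibroblasts as host cells; luminescent beta-galactosidase reporter signal from transgenic T. cruzi replicating inside host cells; inhibitors lower the luminescence signal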
[5] = molecular target: Glucose-6-phosphate 1-dehydrogenase (Homo sapiens, UniProt P11413); assay: inhibition of Homo sapiens G6PD, dose series – biochemical, fluorescence, selectivity assay for P. falciparum G6PD inhibitor project, dose response (AID 504792); assay type: functional
[6] = HPDE-C7 pancreatic duct cell viability loss – fluorescence, HTS (AID 430); assay type: functional, cell-based; conditions: Homo sapiens
[7] = molecular target: Luciferin 4-monooxygenase (Photinus pyralis, UniProt P08659); assay: Counter Screen for Luciferase-based Assay Positives. [Related pubchem assays: 620, 618, 411 ]
Sequence of Luciferin 4-monooxygenase (P08659 whole entry): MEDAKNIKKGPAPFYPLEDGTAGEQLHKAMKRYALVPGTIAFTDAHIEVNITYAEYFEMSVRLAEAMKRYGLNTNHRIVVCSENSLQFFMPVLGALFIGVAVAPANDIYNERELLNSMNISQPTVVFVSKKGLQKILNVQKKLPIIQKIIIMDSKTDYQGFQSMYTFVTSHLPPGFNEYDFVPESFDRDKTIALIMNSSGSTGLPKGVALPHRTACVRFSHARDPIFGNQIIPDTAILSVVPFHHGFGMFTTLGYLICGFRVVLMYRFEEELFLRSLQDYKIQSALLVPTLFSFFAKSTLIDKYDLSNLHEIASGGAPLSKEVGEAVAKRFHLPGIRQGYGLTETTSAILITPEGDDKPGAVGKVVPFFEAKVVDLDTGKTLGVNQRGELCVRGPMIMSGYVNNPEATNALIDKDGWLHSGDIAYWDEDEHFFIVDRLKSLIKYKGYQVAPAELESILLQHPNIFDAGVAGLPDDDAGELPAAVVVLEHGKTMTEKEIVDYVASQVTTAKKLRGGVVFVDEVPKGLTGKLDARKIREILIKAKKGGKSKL

[8] = viability of HCT116 lacking mutant beta-catenin – cell-based, human colon tumor, dose response (AID 1045); assay type: functional;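 note: HCT116 colon tumor cells with beta catenin knocked out; cells exposed to compound for 60 hours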
HT-1080 = assay: HT1080 cell viability loss – fluorescence readout (AID 620); assay type: functional, cell-based; conditions: Homo sapiens
[9] = viability loss of HPDE-C7K cells – cell-based, fluorescence, HTS, primary screen (AID 431); assay type: functional; conditions: Homo sapiens
[10] = HEK-293T cell viability reduction – luminescence, B-cell screen hits, cytotoxicity control for BCR NF-kB inhibitor project, dose response (AID 489021); assay type: functional, cell-based;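 note: HEK-293T cells carrying an NF-kB luciferase reporter; cells exposed to compound for about 14 hours before viability readout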
[11] = NIH3T3 cell viability loss – ATP luminescence, mouse fibroblasts, counter-screen, dose response (AID 2010); assay type: functional, cell-based;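 note: cells exposed to compound for about 90 hours before reading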
[12] = molecular target: Hepatocyte nuclear factor 4-alpha (Homo sapiens, UniProt P41235); assay type: functional, cell-based;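 note: biochemical luminescence-based dose-response counterscreen measuring inhibition of HNF4 dimerization, run alongside a screen for blockers of ABHD5–perilipin-5 interaction; split luciferase complementation of HNF4 fusion proteins in cell lysate measuring dimerization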
Sequence of Hepatocyte nuclear factor 4-alpha (P41235 whole entry, the tested form may be a part): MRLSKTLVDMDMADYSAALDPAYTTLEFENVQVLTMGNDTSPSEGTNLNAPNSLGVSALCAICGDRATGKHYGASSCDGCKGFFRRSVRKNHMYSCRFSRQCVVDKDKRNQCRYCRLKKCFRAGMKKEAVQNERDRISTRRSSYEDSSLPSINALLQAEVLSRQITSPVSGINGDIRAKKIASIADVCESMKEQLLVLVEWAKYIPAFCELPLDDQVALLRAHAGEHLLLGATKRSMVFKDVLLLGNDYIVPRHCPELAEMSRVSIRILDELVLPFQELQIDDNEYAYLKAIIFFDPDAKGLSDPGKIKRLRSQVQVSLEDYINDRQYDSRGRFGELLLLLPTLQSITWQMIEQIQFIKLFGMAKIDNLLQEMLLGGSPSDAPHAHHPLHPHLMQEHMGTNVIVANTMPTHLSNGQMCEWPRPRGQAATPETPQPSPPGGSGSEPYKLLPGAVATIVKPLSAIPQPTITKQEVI

[13] = molecular target: FAD-linked sulfhydryl oxidase ALR (Homo sapiens, UniProt P55789); assay: ALR-catalysed DTT oxidation blockers – biochemical, H2O2 detection, luminescence, cherry-pick, dose response (AID 493248)
Sequence of FAD-linked sulfhydryl oxidase ALR (P55789 whole entry): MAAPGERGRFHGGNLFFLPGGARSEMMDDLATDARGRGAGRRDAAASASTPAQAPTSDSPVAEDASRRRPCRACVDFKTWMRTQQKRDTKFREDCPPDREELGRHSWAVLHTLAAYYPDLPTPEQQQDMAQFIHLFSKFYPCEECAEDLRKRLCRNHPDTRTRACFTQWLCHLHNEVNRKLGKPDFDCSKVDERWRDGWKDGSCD

[14] = viability of PTEN-deleted HCT116 cells – cell-based, HCT116 PTEN knockout, dose response (AID 1047); assay type: functional;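 note: HCT116 colon tumor cells with PTEN knocked out; cells exposed to compound for 60 hours before readout; potency for loss of cell viability measured by luminescence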
[15] = molecular target: cAMP-dependent protein kinase catalytic subunit alpha (Homo sapiens, UniProt P17612); assay type: functional
[16] = molecular target: Homeodomain-interacting protein kinase 2 (Homo sapiens, UniProt Q9H2X6); assay type: functional;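 note: measured within a kinome-wide kinase profiling panel, HIPK2 being one panel member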
Sequence of Homeodomain-interacting protein kinase 2 (Q9H2X6 whole entry): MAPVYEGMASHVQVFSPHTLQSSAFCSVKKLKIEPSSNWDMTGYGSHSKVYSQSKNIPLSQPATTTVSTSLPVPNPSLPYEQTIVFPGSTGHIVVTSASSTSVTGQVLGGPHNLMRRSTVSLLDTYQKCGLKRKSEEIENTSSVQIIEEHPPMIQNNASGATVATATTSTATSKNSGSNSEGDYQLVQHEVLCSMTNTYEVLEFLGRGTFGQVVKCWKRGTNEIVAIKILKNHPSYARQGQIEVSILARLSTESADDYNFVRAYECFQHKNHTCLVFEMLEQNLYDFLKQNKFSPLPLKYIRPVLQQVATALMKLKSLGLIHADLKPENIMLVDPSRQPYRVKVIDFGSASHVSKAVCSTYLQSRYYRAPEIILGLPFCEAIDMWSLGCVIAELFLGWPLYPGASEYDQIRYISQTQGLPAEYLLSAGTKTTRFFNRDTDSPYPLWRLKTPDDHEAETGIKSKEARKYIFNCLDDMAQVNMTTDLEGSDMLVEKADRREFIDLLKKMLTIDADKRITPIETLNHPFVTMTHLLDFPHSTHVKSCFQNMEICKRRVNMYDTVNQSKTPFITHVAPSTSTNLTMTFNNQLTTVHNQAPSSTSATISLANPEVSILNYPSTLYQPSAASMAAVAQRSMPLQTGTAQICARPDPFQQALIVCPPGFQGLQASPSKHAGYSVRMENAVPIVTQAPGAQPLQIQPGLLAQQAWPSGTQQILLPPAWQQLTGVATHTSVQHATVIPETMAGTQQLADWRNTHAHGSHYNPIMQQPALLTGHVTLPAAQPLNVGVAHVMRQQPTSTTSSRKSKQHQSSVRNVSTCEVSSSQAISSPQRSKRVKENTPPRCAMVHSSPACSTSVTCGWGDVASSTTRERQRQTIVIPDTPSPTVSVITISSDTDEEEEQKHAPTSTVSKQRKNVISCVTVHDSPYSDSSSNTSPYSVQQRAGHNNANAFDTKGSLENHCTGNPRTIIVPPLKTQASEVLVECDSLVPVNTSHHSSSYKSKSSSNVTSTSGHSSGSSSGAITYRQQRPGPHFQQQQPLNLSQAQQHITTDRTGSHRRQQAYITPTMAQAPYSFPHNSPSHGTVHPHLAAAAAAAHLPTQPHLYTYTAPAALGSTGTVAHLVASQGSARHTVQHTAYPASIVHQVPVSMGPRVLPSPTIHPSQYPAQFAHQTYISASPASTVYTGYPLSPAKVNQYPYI

[17] = molecular target: Cell division cycle 7-related protein kinase (Homo sapiens, UniProt O00311); assay type: functional;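 note: value obtained from a kinome-wide kinase panel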
[18] = molecular target: Serine/threonine-protein kinase pim-1 (Homo sapiens, UniProt P11309); assay type: functional
[19] = molecular target: Mitogen-activated protein kinase kinase kinase kinase 4 (Homo sapiens, UniProt O95819); assay type: functional
Sequence of Mitogen-activated protein kinase kinase kinase kinase 4 (O95819 whole entry): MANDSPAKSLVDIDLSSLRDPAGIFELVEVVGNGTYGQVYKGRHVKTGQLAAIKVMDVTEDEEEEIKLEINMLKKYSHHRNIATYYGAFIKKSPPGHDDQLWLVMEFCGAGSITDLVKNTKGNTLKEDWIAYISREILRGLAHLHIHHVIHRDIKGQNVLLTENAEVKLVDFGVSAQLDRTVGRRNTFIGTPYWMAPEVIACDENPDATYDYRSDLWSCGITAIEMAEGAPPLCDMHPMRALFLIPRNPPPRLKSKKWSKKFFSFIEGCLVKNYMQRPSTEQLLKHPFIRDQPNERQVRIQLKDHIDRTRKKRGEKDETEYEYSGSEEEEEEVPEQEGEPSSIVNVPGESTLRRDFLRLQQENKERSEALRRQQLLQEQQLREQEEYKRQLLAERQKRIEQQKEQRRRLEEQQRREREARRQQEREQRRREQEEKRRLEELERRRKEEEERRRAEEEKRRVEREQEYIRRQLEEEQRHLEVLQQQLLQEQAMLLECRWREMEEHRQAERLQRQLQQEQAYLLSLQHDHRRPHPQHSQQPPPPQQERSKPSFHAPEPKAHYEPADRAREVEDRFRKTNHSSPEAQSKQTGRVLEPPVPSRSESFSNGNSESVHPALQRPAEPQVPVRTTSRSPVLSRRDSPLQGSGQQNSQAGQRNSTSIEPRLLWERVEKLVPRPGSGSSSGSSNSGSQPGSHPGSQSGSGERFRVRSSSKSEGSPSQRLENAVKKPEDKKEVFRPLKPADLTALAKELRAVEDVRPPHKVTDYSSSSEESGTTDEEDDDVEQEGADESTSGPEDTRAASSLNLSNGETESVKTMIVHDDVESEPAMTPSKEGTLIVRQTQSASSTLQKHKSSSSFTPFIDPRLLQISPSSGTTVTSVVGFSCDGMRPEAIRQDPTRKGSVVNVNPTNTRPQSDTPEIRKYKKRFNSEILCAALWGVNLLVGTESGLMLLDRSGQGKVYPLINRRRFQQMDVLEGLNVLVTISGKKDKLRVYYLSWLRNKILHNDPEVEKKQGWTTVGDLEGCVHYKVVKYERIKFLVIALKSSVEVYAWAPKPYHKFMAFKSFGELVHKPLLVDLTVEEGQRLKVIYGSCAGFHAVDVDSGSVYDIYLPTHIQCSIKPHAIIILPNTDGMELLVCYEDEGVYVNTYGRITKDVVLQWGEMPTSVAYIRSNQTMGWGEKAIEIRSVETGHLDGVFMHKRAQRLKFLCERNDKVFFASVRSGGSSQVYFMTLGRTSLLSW

[20] = molecular target: Interleukin-1 receptor-associated kinase 4 (Homo sapiens, UniProt Q9NWZ3); assay type: functional
[21] = molecular target: Glycogen synthase kinase-3 beta (Homo sapiens, UniProt P49841); assay type: functional;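 note: value comes from a broad kinome profiling panel, with GSK3B as the panel member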
Sequence of Glycogen synthase kinase-3 beta (P49841 whole entry): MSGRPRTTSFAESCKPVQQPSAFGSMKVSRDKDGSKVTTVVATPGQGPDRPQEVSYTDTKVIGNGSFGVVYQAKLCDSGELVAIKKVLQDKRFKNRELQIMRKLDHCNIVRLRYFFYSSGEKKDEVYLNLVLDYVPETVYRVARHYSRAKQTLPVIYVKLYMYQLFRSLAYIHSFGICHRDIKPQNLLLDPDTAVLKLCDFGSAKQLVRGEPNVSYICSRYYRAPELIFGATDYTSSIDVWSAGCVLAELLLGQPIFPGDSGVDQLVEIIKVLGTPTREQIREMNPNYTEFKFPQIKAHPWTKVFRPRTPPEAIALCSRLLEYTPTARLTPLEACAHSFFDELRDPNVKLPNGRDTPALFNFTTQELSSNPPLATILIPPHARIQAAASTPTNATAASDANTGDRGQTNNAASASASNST

Orexin receptor type 2 [22] = molecular target: T2, Orexin receptor type 2 (Homo sapiens, UniProt O43614); assay: Counterscreen assay for antagonists of the orexin 1 receptor (OX1R; HCRTR1): Homogeneous Time Resolved Fluorescence (HTRF)-based cell-based dose response assay for antagonists of the orexin 2 receptor (OX2R; HCRTR2), run by assay provider.; assay type: functional
T2 sequence (O43614 whole entry): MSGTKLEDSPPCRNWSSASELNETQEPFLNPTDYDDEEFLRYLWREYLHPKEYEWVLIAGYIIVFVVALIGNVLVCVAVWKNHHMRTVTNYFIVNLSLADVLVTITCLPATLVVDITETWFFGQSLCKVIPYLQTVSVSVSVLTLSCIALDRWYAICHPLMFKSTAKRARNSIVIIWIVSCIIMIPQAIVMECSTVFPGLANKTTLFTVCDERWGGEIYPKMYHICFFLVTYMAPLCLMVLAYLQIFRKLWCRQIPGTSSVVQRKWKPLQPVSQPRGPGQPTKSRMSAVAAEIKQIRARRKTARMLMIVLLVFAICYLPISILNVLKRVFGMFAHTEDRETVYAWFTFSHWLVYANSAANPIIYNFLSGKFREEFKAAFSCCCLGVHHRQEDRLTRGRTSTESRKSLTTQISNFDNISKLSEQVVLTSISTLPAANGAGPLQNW

[23] = molecular target: T3, Orexin/Hypocretin receptor type 1 (Homo sapiens, UniProt O43613); assay: (§1) Fluorescence-based cell-based high throughput dose response assay for antagonists of the orexin 1 receptor (OX1R; HCRTR1). [Related pubchem assays (depositor defined):AID434989, AID435008, AID463079, AID485270, AID492963, AID492964, AID492965, AID493232, AID504717, AID504718]; assay type: functional
T3 sequence (O43613 whole entry): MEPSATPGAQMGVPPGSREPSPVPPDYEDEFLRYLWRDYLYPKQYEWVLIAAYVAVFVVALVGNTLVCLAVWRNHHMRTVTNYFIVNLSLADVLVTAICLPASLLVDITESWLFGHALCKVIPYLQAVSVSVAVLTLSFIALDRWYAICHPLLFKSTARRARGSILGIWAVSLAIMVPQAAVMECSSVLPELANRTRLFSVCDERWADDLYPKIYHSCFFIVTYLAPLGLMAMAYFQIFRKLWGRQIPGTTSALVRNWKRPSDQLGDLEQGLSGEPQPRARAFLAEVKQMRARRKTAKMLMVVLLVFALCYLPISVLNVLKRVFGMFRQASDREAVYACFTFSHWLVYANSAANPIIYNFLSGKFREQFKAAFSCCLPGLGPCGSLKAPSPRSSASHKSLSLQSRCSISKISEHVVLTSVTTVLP

[24] = (§2) Counterscreen for antagonists of the orexin 1 receptor (OX1R; HCRTR1): Fluorescence-based cell-based high throughput dose response assay to identify antagonists of the parental CHO cell line. [Related pubchem assays (depositor defined):AID434989, AID435008, AID463079, AID485270, AID492963, AID492964, AID492965, AID493232, AID504699, AID504701]; assay type: functional
CHO-K1 = assay: as §2, with “Homogeneous time resolved fluorescence (HTRF)-based” for “Fluorescence-based”, “cell-based” for “cell-based high throughput”, “CHO-K1” for “CHO”; assay type: functional; conditions: Cricetulus griseus;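 note: potency for inhibition of ATP-stimulated IP1 production as antagonists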
[25] = molecular target: T3, Orexin/Hypocretin receptor type 1; assay: as §1, with “Homogeneous Time Resolved Fluorescence (HTRF)-based” for “Fluorescence-based”; assay type: functional
Orexin receptor type 2 [26] = molecular target: T2, Orexin receptor type 2; assay: Counterscreen assay for antagonists of the orexin 1 receptor (OX1R; HCRTR1): Fluorescence-based cell-based dose response assay for antagonists of the orexin 2 receptor (OX2R; HCRTR2), run by assay provider.; assay type: functional
[27] = THP-1 cell cytotoxicity, cytotoxicity control, set 4 (AID 504911); assay type: functional; conditions: Mycobacterium tuberculosis
[28] = molecular target: T4, Apoptotic protease-activating factor 1 (Homo sapiens, UniProt O14727); assay: SAR analysis of small molecule Activators of Apaf-1 in a Fluorescent assay.; assay type: functional; conditions: read-out: EC50_Mean;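 note: caspase-3 cleavage of fluorogenic Rh110 DEVD substrate downstream of apoptosome activation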
T4 sequence (O14727 whole entry): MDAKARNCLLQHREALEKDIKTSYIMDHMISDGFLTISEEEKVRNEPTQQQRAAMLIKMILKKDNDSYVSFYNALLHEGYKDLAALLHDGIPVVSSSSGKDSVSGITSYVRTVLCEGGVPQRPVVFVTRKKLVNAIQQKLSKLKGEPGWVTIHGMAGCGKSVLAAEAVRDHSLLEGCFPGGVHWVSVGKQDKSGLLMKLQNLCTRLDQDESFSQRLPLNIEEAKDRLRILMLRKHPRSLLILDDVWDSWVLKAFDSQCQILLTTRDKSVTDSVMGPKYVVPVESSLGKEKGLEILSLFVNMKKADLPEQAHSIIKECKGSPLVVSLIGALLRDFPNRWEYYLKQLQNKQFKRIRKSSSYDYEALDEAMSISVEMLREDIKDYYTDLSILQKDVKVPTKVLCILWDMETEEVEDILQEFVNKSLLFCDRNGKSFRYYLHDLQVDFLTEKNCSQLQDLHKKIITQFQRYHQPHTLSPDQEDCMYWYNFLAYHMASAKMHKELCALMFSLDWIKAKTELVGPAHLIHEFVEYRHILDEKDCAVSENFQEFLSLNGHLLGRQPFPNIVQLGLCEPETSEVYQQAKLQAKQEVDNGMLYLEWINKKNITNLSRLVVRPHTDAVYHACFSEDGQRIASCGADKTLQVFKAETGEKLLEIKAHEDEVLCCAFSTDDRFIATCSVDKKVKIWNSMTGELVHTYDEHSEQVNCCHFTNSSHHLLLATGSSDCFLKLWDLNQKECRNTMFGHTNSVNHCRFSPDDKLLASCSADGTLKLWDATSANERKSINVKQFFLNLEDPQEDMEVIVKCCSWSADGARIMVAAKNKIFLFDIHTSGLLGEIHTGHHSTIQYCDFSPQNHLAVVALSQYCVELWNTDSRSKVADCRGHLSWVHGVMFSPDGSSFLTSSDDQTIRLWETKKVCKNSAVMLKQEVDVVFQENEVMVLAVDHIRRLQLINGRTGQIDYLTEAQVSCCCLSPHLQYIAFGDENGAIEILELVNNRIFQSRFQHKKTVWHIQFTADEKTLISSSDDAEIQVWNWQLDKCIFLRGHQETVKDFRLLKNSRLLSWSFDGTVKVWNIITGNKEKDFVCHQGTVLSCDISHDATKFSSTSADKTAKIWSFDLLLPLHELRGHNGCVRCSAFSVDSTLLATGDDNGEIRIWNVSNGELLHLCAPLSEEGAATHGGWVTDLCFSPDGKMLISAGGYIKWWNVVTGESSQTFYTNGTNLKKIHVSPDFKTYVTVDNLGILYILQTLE

[29] = molecular target: Mitochondrial peptide methionine sulfoxide reductase (Bos taurus, UniProt P54149); assay type: functional;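 note: absorbance read-out, biochemical high-throughput dose-response screen for MsrA inhibitors, confirmatory; recombinant bovine MsrA coupled to E. coli TrxB with NADPH and selenocystamine; potency is for inhibitors of MsrA activity on DMSO substrate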
[30] = molecular target: Proto-oncogene tyrosine-protein kinase Src (Homo sapiens, UniProt P12931); assay type: functional;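 note: SRC entry within a kinome-wide kinase profiling panel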
[31] = molecular target: Mitogen-activated protein kinase 13 (Homo sapiens, UniProt O15264); assay type: functional
Sequence of Mitogen-activated protein kinase 13 (O15264 whole entry): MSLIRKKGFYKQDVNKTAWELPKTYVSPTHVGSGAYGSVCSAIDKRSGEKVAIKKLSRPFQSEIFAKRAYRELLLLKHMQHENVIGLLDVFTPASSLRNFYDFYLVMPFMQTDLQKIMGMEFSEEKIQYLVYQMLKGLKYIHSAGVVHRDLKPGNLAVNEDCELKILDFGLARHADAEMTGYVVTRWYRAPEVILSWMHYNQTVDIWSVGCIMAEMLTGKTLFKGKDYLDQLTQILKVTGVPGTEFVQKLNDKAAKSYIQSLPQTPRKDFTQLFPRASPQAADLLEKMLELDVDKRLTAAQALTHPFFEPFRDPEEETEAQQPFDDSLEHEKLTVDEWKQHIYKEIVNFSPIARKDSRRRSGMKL

[32] = molecular target: Tyrosine-protein kinase SYK (Homo sapiens, UniProt P43405); assay type: functional

For `O=C(CNC(=O)c1ccc2c(c1)OCCO2)N/N=C/c1ccc(Cl)cc1`, the AC50 [1] was 101 µM (active).

In the case of `COc1ccc(Oc2c(Cl)cnn(Cc3cccc4ccccc34)c2=O)c(F)c1F`, the IC50 [2] is reported as 292 nM (active) and the IC50 [3] is reported as 2.05 µM (active).

In the case of `CC1=CC(C)(C)Nc2ccc(OC(=O)CN3C(=O)CCC3=O)cc21`, the EC50 [4] is reported as 2.93 µM (active), the IC50 [5] is reported as 54 µM (inactive) and the EC50 [6] is reported as 7.45 µM (active). For the same compound, the EC50 [7] was 790 nM (active), the EC50 [8] was 5.71 µM (active) and the EC50 (HT-1080) was > 50 µM (not active). The EC50 [9] was 8.75 µM (active), the IC50 [10] was 48.4 µM (inactive) and the EC50 [11] was 8.86 µM (active). The IC50 [12] was 9.33 µM (active), the AC50 [13] was 2.79 µM (active) and the EC50 [14] was 8.84 µM (active).

For `Cc1n[nH]c2ccc(-c3cncc(OCCN(C)S(C)(=O)=O)c3)cc12`, the Ki [15] was 631 nM (active), the Ki [16] was > 3.16 µM (inactive) and the Ki [17] was 12.6 nM (active). The Ki [18] was 5.01 µM (active), the Ki [19] was 126 nM (active) and the Ki [20] was 3.16 µM (active). The Ki [21] was 398 nM (active).

For `Cc1c(/C=C/C(=O)c2cccs2)cnn1C`, the IC50 (Orexin receptor type 2 [22]) was > 50 µM (inactive), the IC50 [23] was > 49.8 µM (inactive) and the IC50 [24] was > 49.8 µM (inactive). The IC50 (CHO-K1) was 35 µM (inactive), the IC50 [25] was 3.97 µM (active) and the IC50 (Orexin receptor type 2 [26]) was > 88.8 µM (inactive).

In the case of `CCOC(=O)C(C#N)c1c(Cl)c(Br)nn(Cc2cccc3ccccc23)c1=O` (stereo unspecified), the IC50 [2] is reported as 1450 nM (active) and the IC50 [3] is reported as 3.33 µM (active).

For `NC(=O)c1cnccn1` [PYRAZINAMIDE], the CC50 [27] was > 100 µM (active).

With `CCOc1ccccc1NC(=O)CCS(=O)(=O)c1ccc2c(c1)CCN2C(C)=O` the EC50 [28] was > 100 µM (inactive).

For `COC(=O)CC/C(C)=N\Nc1ccc([N+](=O)[O-])cc1[N+](=O)[O-]`, the IC50 [29] was 155 µM (inactive).

With `Cn1cc(C=C2C(=O)Nc3cccnc32)c2ccccc21` [GW441756X] the Ki [30] was 501 nM (active), the Ki [31] was > 7.94 µM (inactive) and the Ki [32] was 501 nM (active).
